Patent US12030903B2, “Antiviral compounds” (Gilead Sciences, Inc., priority 2020, dated 2024)
Read-outs that look alike come from different tables or passages of the source.

How the values were obtained:
[1] = system: Dengue 2, New Guinea strain (NGC); assay: DENV-2 moDC EC50 (qPCR of viral RNA in infected moDCs); assay type: cell-based, New Guinea strain (NGC); human moDCs; details: human moDCs infected with Dengue 2 NGC, MOI=0.1, 48 hours
Method in brief: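 moDCs differentiated 7 days from CD14+ monocytes with GM-CSF/IL-4, infected with Vero-derived DENV-2 NGC at MOI 0.1 for 2 h at 37 °C, then plated in triplicate with graded compound doses (0.25% DMSO). At 48 h viral RNA quantified by duplex TaqMan qPCR against GAPDH; EC50 normalized to positive and no-compound controls.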

[2] = moDC CC50 (CellTiter Glo viability); assay type: cell-based, Human; details: human, uninfected moDCs
[3] = system: Dengue serotype 2 New Guinea C (NGC) strain; assay: DENV-2 Huh-7 EC50 (qPCR of viral RNA in infected Huh7 cells); assay type: cell-based; details: MOI=0.1, 48 hours
Method in brief: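 Huh7 cells were infected 2 h at 37 °C with DENV-2 NGC at MOI 0.1, then plated with graded compound doses (0.25% DMSO) in triplicate for 48 h. Viral RNA was quantified by duplex TaqMan qPCR against GAPDH. EC50 was normalized to positive and no-compound controls.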

[4] = Huh-7 CC50 (CellTiter Glo viability); assay type: cell-based, Human; details: human, Huh7 hepatocarcinoma cells
Method in brief: (§1)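 Huh7 cells in 10% FCS DMEM plated at 1-2×10^4 per well in triplicate with graded compound doses, 0.25% DMSO throughout. Viability after 48 hours by CellTiter Glo luminescence, normalized to no-compound and no-cell controls; CC50 from curve fitting.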

[5] = system: RSV strain A2; assay: RSV HEp-2 EC50 (infectious cytopathic cell protection assay); assay type: cell-based, RSV strain A2; HEp-2 cells; details: read-out: RSV Hep-2 EC50
Method in brief: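 HEp-2 cells (50,000/mL) infected with titered RSV stock, added onto compound in 3-fold serial dilutions; 4 days at 37 °C. Cell viability read by CellTiter-Glo luminescence; percent inhibition of virus-induced cytopathic effect derived from remaining viability against 0% and 100% inhibition controls.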

[6] = HEp-2 CC50 (cytotoxicity in uninfected HEp-2 cells); assay type: cell-based; details: human, CellTiter Glo
Procedure: (§2) Instead, an uninfected cell mixture at the same density is added at 20 uL/well to plates containing prediluted compounds, also at 100 nL/sample. Assay plates are then incubated for 4 days followed by a cell viability test using the same CellTiter Glo reagent addition and measurement of luminescent readouts. Untreated cell and cells treated at 2 μM puromycin (Sigma, St. Louis, MO) serve as 100% and 0% cell viability control, respectively.

[7] = system: RSV A2; assay: RSV NHBE EC50 (RSV A2 antiviral assay in NHBE cells); assay type: cell-based, RSV A2; normal human bronchial epithelial (NHBE) cells; details: human respiratory syncytial virus, 96 h; NHBE cells infected with RSV A2, 4 days, Cell-Titer Glo
Procedure: Example 88. RSV NHBE EC50
Normal human bronchial epithelial (NHBE) cells were purchased from Lonza (Walkersville, MD, Cat #CC-2540) and cultured in Bronchial Epithelial Growth Media (BEGM) (Lonza, Walkersville, MID, Cat 9 CC-3170). The cells were passaged 1-2 times per week to maintain<80% confluency. The NHBE cells were discarded after 6 passages in culture.
To conduct the RSV A2 antiviral assay, NHBE cells were plated in 96-well plates at a density of 7,500 cells per well in BEGM and allowed to attach overnight at 37° C. Following attachment, 100 μL of cell culture media was removed and 3-fold serially diluted compound was added using a Hewlett-Packard D300 Digital Dispenser. The final concentration of DMSO was normalized to 0.05%. Following compound addition, the NHBE cells were infected by the addition of 100 μL of RSV A2 at a titer of […] tissue culture infectious doses/mL in BEGM and then incubated at 37° C. for 4 days. The NHBE cells were then allowed to equilibrate to 25° C. and cell viability was determined by removing 100 μL of culture medium and adding 100 μL of Cell-Titer Glo viability reagent. The mixtures were incubated for 10 minutes at 25° C., and the luminescence signal was quantified on an Envision luminescence plate reader.

[8] = system: Human hepatocarcinoma 7 (Huh7) cells; assay: Huh-7 CC50 (CellTiter Glo viability); assay type: cell-based; details: 48 hours
Method in brief: as §1

[9] = system: uninfected HEp-2 cells; assay: HEp-2 CC50 (cytotoxicity in uninfected HEp-2 cells); assay type: cell-based; details: 4 days, CellTiter Glo
Procedure: as §2

[10] = system: Human monocyte-derived dendritic cells (moDCs); assay: moDC CC50 (CellTiter Glo viability); assay type: cell-based; details: uninfected moDCs, 48 hours
[11] = Dengue virus, DENV2, Huh-7, Huh7 cells infected with Dengue serotype 2 NGC
[12] = human respiratory syncytial virus, HEp-2, 96 h
[13] = Huh7 cells infected with Dengue serotype 2 NGC
[14] = HEp-2 cells infected with RSV A2, 4 days, Cell TiterGlo

## COC(=O)[C@H](C)NP(=O)(OC[C@@]1(CF)O[C@@H](c2ccc3c(N)ncnn23)[C@H](OC(=O)C(C)C)[C@@H]1OC(=O)C(C)C)Oc1ccccc1 (single isomer, unassigned) [Example 11]
[1]; Dengue virus
  EC50: 0.38 µM
[2]
  CC50 at 48 h: 16.1 µM
[3]; [11]
  EC50: 0.586 µM
[4]
  CC50 at 48 h: > 18.8 µM
[5]; [12]
  EC50: 2.04 µM
[6]
  CC50 at 4 days: 12.6 µM
[7]
  EC50: 0.367 µM

## CCOC(=O)[C@H](C)NP(=O)(OC[C@@]1(CF)O[C@@H](c2ccc3c(N)ncnn23)[C@H](O)[C@@H]1O)Oc1ccc(C(C)(C)C)cc1 (single isomer, unassigned) [Example 48]
[3]; [13]
  EC50: 0.39 µM
[8]
  CC50: 15.4 µM
[5]; [14]
  EC50: 0.215 µM
[9]
  CC50: 30.2 µM

## CCOC(=O)[C@H](C)NP(=O)(OC[C@@]1(CF)O[C@@H](c2ccc3c(N)ncnn23)[C@H](O)[C@@H]1O)Oc1ccc(C(C)(C)C)cc1 (single isomer, unassigned) [Example 49]
[3]; [13]
  EC50: 0.334 µM
[8]
  CC50: > 25 µM
[5]; [14]
  EC50: 0.225 µM
[9]
  CC50: > 100 µM

## C[C@H](NP(=O)(OC[C@@]1(CF)O[C@@H](c2ccc3c(N)ncnn23)[C@H](O)[C@@H]1O)Oc1ccccc1)C(=O)OCC(C)(C)C(F)(F)F (single isomer, unassigned) [Example 54]
[1]
  EC50: 0.241 µM
[10]
  CC50: 3.25 µM
[3]; [13]
  EC50: 0.409 µM
[8]
  CC50: > 25 µM
[5]; [14]
  EC50: 0.18 µM
[9]
  CC50: > 100 µM

## C[C@H](NP(=O)(OC[C@@]1(CF)O[C@@H](c2ccc3c(N)ncnn23)[C@H](O)[C@@H]1O)Oc1ccccc1)C(=O)OCC(C)(C)C(F)(F)F (single isomer, unassigned) [Example 55]
[1]
  EC50: 0.103 µM
[10]
  CC50: 4.19 µM
[3]; [13]
  EC50: 0.611 µM
[8]
  CC50: > 25 µM
[5]; [14]
  EC50: 0.15 µM
[9]
  CC50: > 100 µM

## CCC(CC)COC(=O)[C@H](C)N[P@](=O)(OC[C@@]1(CF)O[C@@H](c2ccc3c(N)ncnn23)[C@H](O)[C@@H]1O)Oc1ccccc1 [Example 1, 2-ethylbutyl ((S)-(((2R,3S,4R,5S)-5-(4-aminopyrrolo[2,1-f][1,2,4]triazin-7-yl)-2-(fluoromethyl)-3,4-dihydroxytetrahydrofuran-2-yl)methoxy)(phenoxy)phosphoryl)-L-alaninate]
[1]; Dengue virus
  EC50: 0.117 µM
[2]
  CC50 at 48 h: > 5.89 µM
[3]; [11]
  EC50: 0.151 µM
[4]
  CC50 at 48 h: 18 µM
[5]; [12]
  EC50: 0.119 µM
[6]
  CC50 at 4 days: > 50 µM
[7]
  EC50: 0.595 µM

## COC(=O)[C@H](C)NP(=O)(OC[C@@]1(CF)O[C@@H](c2ccc3c(N)ncnn23)[C@H](O)[C@@H]1O)Oc1ccccc1 (stereo partly drawn) [Example 10, methyl ((((2R,3S,4R,5S)-5-(4-aminopyrrolo[2,1-f][1,2,4]triazin-7-yl)-2-(fluoromethyl)-3,4-dihydroxytetrahydrofuran-2-yl)methoxy)(phenoxy)phosphoryl)-L-alaninate]
[1]; Dengue virus
  EC50: 0.679 µM
[2]
  CC50 at 48 h: > 19.5 µM
[3]; [11]
  EC50: 0.843 µM
[4]
  CC50 at 48 h: > 25 µM
[5]; [12]
  EC50: 0.909 µM
[6]
  CC50 at 4 days: > 50 µM
[7]
  EC50: 2.11 µM

## CC(=O)O[C@H]1[C@H](c2ccc3c(N)ncnn23)O[C@](CF)(COP(=O)(N[C@@H](C)C(=O)OC2CCCCC2)Oc2ccccc2)[C@H]1OC(C)=O (stereo partly drawn) [Example 15, (2R,3S,4S,5S)-5-(4-aminopyrrolo[2,1-f][1,2,4]triazin-7-yl)-2-((((((S)-1-(cyclohexyloxy)-1-oxopropan-2-yl)amino)(Phenoxy)phosphoryl)oxy)methyl)-2-(fluoromethyl)tetrahydrofuran-3,4-diyl diacetate]
[3]; [13]
  EC50: 1.63 µM
[8]
  CC50: > 25 µM
[5]; [14]
  EC50: 1.46 µM
[9]
  CC50: > 50 µM

## CCC(=O)O[C@H]1[C@H](c2ccc3c(N)ncnn23)O[C@](CF)(COP(=O)(N[C@@H](C)C(=O)OC2CCCCC2)Oc2ccccc2)[C@H]1OC(=O)CC (stereo partly drawn) [Example 16, (2R,3S,4S,5S)-5-(4-aminopyrrolo[2,1-f][1,2,4]triazin-7-yl)-2-((((((S)-1-(cyclohexyloxy)-1-oxopropan-2-yl)amino)(Phenoxy)phosphoryl)oxy)methyl)-2-(fluoromethyl)tetrahydrofuran-3,4-diyl dipropionate]
[1]
  EC50: 0.214 µM
[10]
  CC50: 3.8 µM
[3]; [13]
  EC50: 0.736 µM
[8]
  CC50: 13.4 µM
[5]; [14]
  EC50: 1.1 µM
[9]
  CC50: 33 µM

## CCOC(=O)[C@H](C)NP(=O)(OC[C@@]1(CF)O[C@@H](c2ccc3c(N)ncnn23)[C@H](OC(C)=O)[C@@H]1OC(C)=O)Oc1ccccc1 (stereo partly drawn) [Example 21, (2R,3S,4S,5S)-5-(4-aminopyrrolo[2,1-f][1,2,4]triazin-7-yl)-2-((((((S)-1-ethoxy-1-oxopropan-2-yl)amino)(phenoxy)phosphoryl)oxy)methyl)-2-(fluoromethyl)tetrahydrofuran-3,4-diyl diacetate]
[1]
  EC50: 1.04 µM
[10]
  CC50: > 17.3 µM
[3]; [13]
  EC50: 3.06 µM
[8]
  CC50: > 25 µM
[5]; [14]
  EC50: 1.78 µM
[9]
  CC50: > 100 µM

## CCOC(=O)[C@H](C)NP(=O)(OC[C@@]1(CF)O[C@@H](c2ccc3c(N)ncnn23)[C@H](OC(=O)C(C)C)[C@@H]1OC(=O)C(C)C)Oc1ccccc1 (stereo partly drawn) [Example 24, (2R,3S,4S,5S)-5-(4-aminopyrrolo[2,1-f][1,2,4]triazin-7-yl)-2-((((((S)-1-ethoxy-1-oxopropan-2-yl)amino)(phenoxy)phosphoryl)oxy)methyl)-2-(fluoromethyl) tetrahydrofuran-3,4-diyl bis(2-methylpropanoate)]
[1]
  EC50: 0.257 µM
[10]
  CC50: 18.6 µM
[3]; [13]
  EC50: 1.56 µM
[8]
  CC50: 16 µM
[5]; [14]
  EC50: 1.83 µM
[9]
  CC50: 16.6 µM

## CCOC(=O)[C@H](C)NP(=O)(OC[C@@]1(CF)O[C@@H](c2ccc3c(N)ncnn23)[C@H](OC(=O)CC)[C@@H]1OC(=O)CC)Oc1ccccc1 (stereo partly drawn) [Example 25, (2R,3S,4S,5S)-5-(4-aminopyrrolo[2,1-f][1,2,4]triazin-7-yl)-2-((((((S)-1-ethoxy-1-oxopropan-2-yl)amino)(Phenoxy)phosphoryl)oxy)methyl)-2-(fluoromethyl) tetrahydrofuran-3,4-diyl dipropionate]
[1]
  EC50: 0.213 µM
[3]; [13]
  EC50: 0.291 µM
[8]
  CC50: > 25 µM
[5]; [14]
  EC50: 0.919 µM
[9]
  CC50: 70 µM

## CCC(=O)O[C@H]1[C@H](c2ccc3c(N)ncnn23)O[C@](CF)(COP(=O)(N[C@@H](C)C(=O)OC)Oc2ccccc2)[C@H]1OC(=O)CC (stereo partly drawn) [Example 33, (2R,3S,4S,5S)-5-(4-aminopyrrolo[2,1-f][1,2,4]triazin-7-yl)-2-(fluoromethyl)-2-((((((S)-1-methoxy-1-oxopropan-2-yl)amino)(phenoxy)phosphoryl)oxy)methyl)tetrahydrofuran-3,4-diyl dipropionate]
[3]; [13]
  EC50: 0.811 µM
[8]
  CC50: > 25 µM
[5]; [14]
  EC50: 1.22 µM
[9]
  CC50: 43.3 µM

## Nc1ncnn2c([C@@H]3O[C@@](CO)(CF)[C@@H](O)[C@H]3O)ccc12 [Intermediate 5, (2R,3S,4R,5S)-5-(4-aminopyrrolo[2,1-f][1,2,4]triazin-7-yl)-2-(fluoromethyl)-2-(hydroxymethyl)tetrahydrofuran-3,4-diol]
[5]; [12]
  EC50: > 50 µM
[6]
  CC50 at 4 days: > 50 µM
[7]
  EC50: > 4.83 µM
